Data reported in US9732094B2, “Arylquinazolines” (Merck Patent GmbH, priority 2013, dated 2017).
Read-outs that look alike come from different tables or passages of the source.

What was measured:
DNA-PK = DNA-PK (Homo sapiens (Human), UniProt P78527); experiment: DNA-PK assay (biochemical), flashplate 33P-ATP kinase assay
How it was run: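 Radiometric kinase reaction in streptavidin-coated flashplates, stopped with 200 mM EDTA, then 30 min room-temperature incubation and saline washes.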

Kv11.1 (hERG) = Kv11.1 (hERG) (Homo sapiens (Human), UniProt Q12809); experiment: Kv11.1 (hERG) ion channel activity (patch clamp assay), HEK293 cells transfected with hERG gene
Sequence of Kv11.1 (hERG) (Q12809 whole entry): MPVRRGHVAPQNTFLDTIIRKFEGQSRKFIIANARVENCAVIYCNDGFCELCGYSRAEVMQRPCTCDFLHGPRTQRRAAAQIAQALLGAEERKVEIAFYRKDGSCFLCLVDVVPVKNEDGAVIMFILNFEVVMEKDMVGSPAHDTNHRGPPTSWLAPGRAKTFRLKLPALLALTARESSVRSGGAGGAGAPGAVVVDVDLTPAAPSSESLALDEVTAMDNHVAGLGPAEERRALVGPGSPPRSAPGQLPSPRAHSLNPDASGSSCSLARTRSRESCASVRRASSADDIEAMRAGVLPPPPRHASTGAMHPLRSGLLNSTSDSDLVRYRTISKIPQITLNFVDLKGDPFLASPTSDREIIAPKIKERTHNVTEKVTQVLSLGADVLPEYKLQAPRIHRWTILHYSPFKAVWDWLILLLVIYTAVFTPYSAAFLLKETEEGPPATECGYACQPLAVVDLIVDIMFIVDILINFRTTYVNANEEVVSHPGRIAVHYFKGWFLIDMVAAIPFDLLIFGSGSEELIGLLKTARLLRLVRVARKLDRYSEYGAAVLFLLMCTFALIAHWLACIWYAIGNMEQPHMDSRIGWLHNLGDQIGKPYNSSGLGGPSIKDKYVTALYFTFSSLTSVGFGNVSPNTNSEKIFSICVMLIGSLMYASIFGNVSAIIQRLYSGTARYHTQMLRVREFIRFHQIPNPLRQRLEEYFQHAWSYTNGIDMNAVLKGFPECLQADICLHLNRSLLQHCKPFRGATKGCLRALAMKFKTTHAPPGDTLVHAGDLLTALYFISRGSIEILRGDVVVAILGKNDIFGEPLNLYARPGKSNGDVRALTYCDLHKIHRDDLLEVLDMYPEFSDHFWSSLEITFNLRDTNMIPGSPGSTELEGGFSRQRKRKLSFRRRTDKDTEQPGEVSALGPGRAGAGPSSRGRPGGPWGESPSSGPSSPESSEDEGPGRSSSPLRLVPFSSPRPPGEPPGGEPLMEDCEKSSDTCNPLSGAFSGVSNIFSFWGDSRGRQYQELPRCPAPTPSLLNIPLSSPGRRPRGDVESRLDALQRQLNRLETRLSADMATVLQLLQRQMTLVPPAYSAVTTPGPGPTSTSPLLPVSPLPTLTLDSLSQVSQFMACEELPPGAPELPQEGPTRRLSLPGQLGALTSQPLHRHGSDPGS

[1] = biological target: DNA-PK phosphorylation at serine 2056 (Homo sapiens (Human), UniProt P78527); experiment: DNA-PK phosphorylation at serine 2056 (cellular), bleomycin-treated HCT116 cells, ELISA; type: cell-based; settings: read-out: IC50 pDNA-PK
How it was run: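 Chemiluminescent ELISA quantified DNA-PK Ser2056 phosphorylation relative to total DNA-PKcs in HCT116 cells. Cells received compounds together with 10 μM bleomycin for 6 h; DMSO served as blank.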

[2] = read-out: Ki [Kv1.11 hERG], hERG patch clamp assay (cells without asterisk)
[3] = cellular DNA-PK phosphorylation at serine 2056, HCT116
[4] = read-out: Ki [Kv1.11 hERG], patch clamp, HEK293 transfected with hERG gene
[5] = cellular, HCT116 cells, 10 μM bleomycin, six hours
[6] = Ki [Kv1.11 hERG], patch clamp, HEK293 transfected with hERG gene
[7] = Ki [Kv1.11 hERG], hERG patch clamp assay (cells without asterisk)

| Compound | IC50 (DNA-PK; biochemical DNA-PK assay) [nM] | IC50 [1, 3] [nM] | IC50 (DNA-PK; enzymatic, 5 μM ATP) [nM] | IC50 [1, 5] [nM] | Ki (Kv11.1 (hERG); [4]) [nM] | other results |
| --- | --- | --- | --- | --- | --- | --- |
| Cn1nc(C(O)c2cc(-c3ncnc4cc(N5CCOCC5)ccc34)c(F)cc2F)ccc1=O (stereo not drawn) [Example 219, 6-{[2,4-Difluoro-5-(7-morpholin-4-yl-quinazolin-4-yl)-phenyl]hydroxy-methyl}-2-methyl-2H-pyridazin-3-one] | – | – | – | – | – | IC50 (DNA-PK; Table 7): 3 to 7 nM; Ki (Kv11.1 (hERG); Ki [Kv1.11 hERG], Table 7): 15000 to 25000 nM; IC50 ([1]; Table 7, HCT116 cells): 500 to 5000 nM |
| [2H]C1([2H])OC([2H])([2H])C([2H])([2H])N(c2ccc3c(-c4cc([C@H](O)c5nccnc5C)ccc4F)ncnc3c2)C1([2H])[2H] [Example 243, (S)-[4-Fluoro-3-[7-(2,2,3,3,5,5,6,6-octadeuteriomorpholin-4-yl)quinazolin-4-yl]phenyl]-(3-methylpyrazin-2-yl)methanol] | 7 to 30 | 500 to 5000 | – | – | – | Ki (Kv11.1 (hERG); [2]): 15000 to 25000 nM |
| COc1ccc(C(O)c2cc(-c3ncnc4cc(N5CCOCC5)ccc34)c(F)cc2F)cn1 (stereo not drawn) [Example 221, [2,4-Difluoro-5-(7-morpholin-4-yl-quinazolin-4-yl)-phenyl]-(6-methoxy-pyridin-3-yl)methanol] | – | – | – | – | – | IC50 (DNA-PK; Table 7): 3 to 7 nM; Ki (Kv11.1 (hERG); Ki [Kv1.11 hERG], Table 7): 15000 to 25000 nM; IC50 ([1]; Table 7, HCT116 cells): 500 to 5000 nM |
| CN(C)C(=O)c1ccc(C(O)c2cc(-c3ncnc4cc(N5CCOCC5)ccc34)c(F)cc2Cl)nn1 (stereo not drawn) [Example 50, 6-{[2-Chloro-4-fluoro-5-(7-morpholin-4-yl-quinazolin-4-yl)phenyl]-hydroxymethyl}-pyridazine-3-carboxylic acid dimethylamide] | – | – | 7 to 30 | 10000 to 30000 | > 25000 | – |
| OC(c1ccc(F)c(-c2ncnc3cc(N4CCOCC4)ccc23)c1)c1ncccc1Br (stereo not drawn) [Example 478, (3-bromo-pyridin-2-yl)-[4-fluoro-3-(7-morpholin-4-yl-quinazolin-4-yl)-phenyl] methanol] | < 3 | < 500 | – | – | – | Ki (Kv11.1 (hERG); [2]): < 10000 nM |
| N#CCCOc1ccc(C(O)c2cc(-c3ncnc4cc(N5CCOCC5)ccc34)c(F)cc2Cl)nn1 (stereo not drawn) [Example 107, 3-(6-{[2-Chloro-4-fluoro-5-(7-morpholin-4-yl-quinazolin-4-yl)-phenyl]hydroxy-methyl}pyridazin-3-yl-oxy)propionitrile] | – | – | 3 to 7 | 500 to 5000 | > 25000 | – |
| CCn1nc(C(O)c2cc(-c3ncnc4cc(N5CCOCC5)ccc34)c(F)cc2Cl)ccc1=O (stereo not drawn) [Example 93, 6-{[2-Chloro-4-fluoro-5-(7-morpholin-4-yl-quinazolin-4-y1)phenyl]-hydroxymethyl}-2-ethyl-2H-pyridazin-3-one] | – | – | 3 to 7 | < 500 | – | Ki (Kv11.1 (hERG); [6]): 10000 to 15000 nM |
| Cn1cc(C(O)c2ccc(F)c(-c3ncnc4cc(N5CCOCC5)ccc34)c2)cn1 (stereo not drawn) [Example 191, [4-Fluoro-3-(7-morpholin-4-yl-quinazolin-4-yl)-phenyl]-(1-methyl-1H-pyrazol-4-yl)-methanol] | – | – | – | – | – | IC50 (DNA-PK; Table 5): < 3 nM; Ki (Kv11.1 (hERG); read-out: Ki [Kv1.11 hERG], Table 5): > 25000 nM; IC50 ([1]; Table 5, HCT116 cells): 10000 to 30000 nM |
| NC(=O)Cn1nc(C(O)c2cc(-c3ncnc4cc(N5CCOCC5)ccc34)c(F)cc2Cl)ccc1=O (stereo not drawn) [Example 98, 2-{3-{[2-Chloro-4-fluoro-5-(7-morpholin-4-ylquinazolin-4-yl)-phenyl]hydroxymethyl}-6-oxo-6H-pyridazin-1-yl)acetamide] | – | – | 3 to 7 | 10000 to 30000 | > 25000 | – |
| OC(c1ccc(F)c(-c2ncnc3cc(N4CCOCC4)ccc23)c1)c1ncnn2cccc12 (stereo not drawn) [Example 345, [4-Fluoro-3-(7-morpholin-4-yl-quinazolin-4-yl)-phenyl]pyrrolo[2,1-f]-[1,2,4]triazin-4-yl-methanol] | < 3 | < 500 | – | – | – | Ki (Kv11.1 (hERG); [2]): < 10000 nM |
| Cc1ccc(C(O)c2ccc(F)c(-c3ncnc4cc(N5CCOCC5)ccc34)c2)nn1 (stereo not drawn) [Example 70, [4-Fluoro-3-(7-morpholin-4-yl-quinazolin-4-yl)phenyl]-(6-methylpyridazin-3-yl)methanol] | – | – | 3 to 7 | 500 to 5000 | > 25000 | – |
| OC(c1ccc2nccn2n1)c1cc(-c2ncnc3cc(N4CCOCC4)ccc23)c(F)cc1Cl (stereo not drawn) [Example 57, [2-Chloro-4-fluoro-5-(7-morpholin-4-yl-quinazolin-4-yl)phenyl]-imidazo[1,2-b]pyridazin-6-ylmethanol] | – | – | < 3 | < 500 | 10000 to 15000 | – |
| OC(c1ccc(F)c(-c2ncnc3cc(N4CCOCC4)sc23)c1)c1nccnc1Cl (stereo not drawn) [Example 37, (3-Chloropyrazin-2-yl)-[4-fluoro-3-(6-morpholin-4-ylthieno[3,2-d]pyrimidin-4-yl)phenyl]-methanol] | – | – | < 3 | < 500 | – | Ki (Kv11.1 (hERG); [6]): 10000 to 15000 nM |
| NC(=O)C(c1cc(-c2ncnc3cc(N4CCOCC4)ccc23)c(F)cc1Cl)c1ncccc1Cl (stereo not drawn) [Example 289, 2-[2-Chloro-4-fIuoro-5-(7-morpholin-4-yl-quinazolin-4-yl)-phenyl]-2-(3-chloro-pyridin-2-yl)-acetamide] | < 3 | 500 to 5000 | – | – | – | Ki (Kv11.1 (hERG); [7]): 15000 to 25000 nM |
| COc1ccc(C(O)c2cc(-c3ncnc4cc(N5CCOCC5)ccc34)ccc2Cl)nn1 (stereo not drawn) [Example 458, [2-Chloro-5-(7-morpholin-4-yl-quinazolin-4-yl)-phenyl]-(6-methoxy-pyridazin-3-yl)-methanol] | < 3 | < 500 | – | – | – | Ki (Kv11.1 (hERG); [7]): 10000 to 15000 nM |
| OC(c1ccc(F)c(-c2ncnc3cc(N4CCOCC4)ccc23)c1)c1nncc2ccoc12 (stereo not drawn) [Example 335, [4-Fluoro-3-(7-morpholin-4-yl-quinazolin-4-yl)-phenyl]furo[2,3-d}-pyridazin-7-yl-methanol] | < 3 | < 500 | – | – | – | Ki (Kv11.1 (hERG); [2]): > 25000 nM |
| O=c1ccc(C(O)c2cc(-c3ncnc4cc(N5CCOCC5)ccc34)c(F)cc2Cl)nn1C1CC1 (stereo not drawn) [Example 95, 6-{[2-Chloro-4-fluoro-5-(7-morpholin-4-yl-quinazolin-4-yl)phenyl]-hydroxymethyl}-2-cyclopropyl-2H-pyridazin-3-one] | – | – | 7 to 30 | 500 to 5000 | > 25000 | – |
| Cn1c(C(O)c2cc(-c3ncnc4cc(N5CCOCC5)ccc34)c(F)cc2Cl)nccc1=O (stereo not drawn) [Example 368, 2-{[2-Chloro-4-fluoro-5-(7-morpholin-4-yl-quinazolin-4-yl)-phenyl]hydroxy-methyl}-3-methyl-3H-pyrimidin-4-one] | 7 to 30 | 5000 to 10000 | – | – | – | Ki (Kv11.1 (hERG); [2]): > 25000 nM |
| [2H]c1c(N2CCOCC2)cc2ncnc(-c3cc(C(O)c4nccnc4C)ccc3F)c2c1[2H] (stereo not drawn) [Example 226, [3-(5,6-Dideuterio-7-morpholino-quinazolin-4-yl)-4-fluorophenyl]-(3-melhylpyrazin-2-yl)-methanol] | 3 to 7 | < 500 | – | – | – | Ki (Kv11.1 (hERG); [7]): > 25000 nM |
| COc1cncnc1C(O)c1cc(-c2ncnc3cc(N4CCOCC4)ccc23)ccc1Cl (stereo not drawn) [Example 409, [2-Chloro-5-(7-morpholin-4-yl-quinazolin-4-yl)-phenyl]-(5-methoxy-pyrimidin-4-yl)-methanol] | 3 to 7 | 500 to 5000 | – | – | – | Ki (Kv11.1 (hERG); [2]): > 25000 nM |

Second part, led by results:

| IC50 (DNA-PK; biochemical DNA-PK assay) [nM] | IC50 [1, 3] [nM] | IC50 (DNA-PK; enzymatic, 5 μM ATP) [nM] | IC50 [1, 5] [nM] | Compound | Ki (Kv11.1 (hERG); [4]) [nM] | other results |
| --- | --- | --- | --- | --- | --- | --- |
| 3 to 7 | 500 to 5000 | – | – | Cn1cnc2c(C(O)c3cc(-c4ncnc5cc(N6CCOCC6)ccc45)c(F)cc3F)ncnc21 (stereo not drawn) [Example 347, [2,4-Difluoro-5-(7-morpholin-4-yl-quinazolin-4-yl)-phenyl]-(9-methyl-9H-purin-6-yl)-methanol] | – | Ki (Kv11.1 (hERG); [2]): > 25000 nM |
| – | – | 7 to 30 | 500 to 5000 | COc1nccnc1C(O)c1ccc(F)c(-c2ncnc3cc(N4CCOCC4)ccc23)c1 (stereo not drawn) [Example 16, [4-Fluoro-3-(7-morpholin-4-yl-quinazolin-4-yl)phenyl]-(3-methoxy-pyrazin-2-yl)methanol] | > 25000 | – |
| – | – | 7 to 30 | 5000 to 10000 | OC(c1ccc2nccn2n1)c1cc(-c2ncnc3cc(N4CCOCC4)ccc23)c(F)cc1F (single isomer, unassigned) [Example 20, [2,4-Difluoro-5-(7-morpholin-4-yl-quinazolin-4-yl)phenyl]-imidazo[1,2-b]pyridazin-6-ylmethanol] | > 25000 | – |
| 7 to 30 | 5000 to 10000 | – | – | Cc1nccnc1C(C(N)=O)c1cc(-c2ncnc3cc(N4CCOCC4)ccc23)c(F)cc1F (stereo not drawn) [Example 329, 2-[2,4-Difluoro-5-(7-morpholin-4-yl-quinazolin-4-yl)-phenyl]-2-(3-methyl-pyrazin-2-yl)-acetamide] | – | Ki (Kv11.1 (hERG); [2]): > 25000 nM |
| – | – | < 3 | < 500 | COc1ccc(C(O)c2ccc(F)c(-c3ncnc4cc(N5CCOCC5)ccc34)c2)nn1 (stereo not drawn) [Example 74, [4-Fluoro-3-(7-morpholin-4-yl-quinazolin-4-yl)phenyl]-(6-methoxypyridazin-3-yl)methanol] | > 25000 | – |
| – | – | < 3 | 500 to 5000 | Cc1cc(F)c(-c2ncnc3cc(N4CCOCC4)ccc23)cc1C(O)c1nccs1 (stereo not drawn) [Example 207, [4-Fluoro-2-methyl-5-(7-morpholinylquinazolin-4-yl)phenyl]thiazol-2-ylmethanol] | – | Ki (Kv11.1 (hERG); [6]): 15000 to 25000 nM |
| – | – | 3 to 7 | 5000 to 10000 | COc1cnc(C(O)c2ccc(F)c(-c3ncnc4cc(N5CCOCC5)ccc34)c2)cn1 (stereo not drawn) [Example 52, [4-Fluoro-3-(7-morpholin-4-yl-quinazolin-4-yl)phenyl]-(5-methoxy-pyrazin-2-yl)methanol] | > 25000 | – |
